How the values were obtained:
[1] = Lipophilicity assay (octanol/buffer); type: physicochemical; settings: for LogD @ pH 7.4 / logD: n-octanol / 10 mM sodium phosphate buffer pH 7.4, LC-UV; for Lipophilicity class from Log D: pH 7.4
Procedure: 1.56 g NaH2PO4·2H2O was dissolved in 0.5 L water in a 1 L beaker. After adjusting pH to 7.4 using NaOH solution, the volume was made up to 1 L. Equal volumes of sodium phosphate buffer (10 mM, pH 7.4) and n-octanol were added to a separation funnel and mixed thoroughly by shaking and inverting the funnel several times. The two layers were allowed to separate for overnight and then dispensed in two separate glass bottles. 10 mM stock solution was prepared in 100% DMSO and stored at 4° C. 495 μL of organic phase (1-octanol) was added to each well of a 2 mL deep well plate, followed by 495 μL of buffer and 10 μL of test compound was added. The plate was incubated for 3 hr at room temperature on a plate shaker at 500 rpm. After incubation, the samples were allowed to equilibrate for 20 min and then centrifuged at 4000 rpm for 30 min for complete phase separation and analysed by LC-UV.
Log D=Log (area of octanol/area of buffer)

[2] = Plasma stability assay; type: in vitro ADME, human; settings: for Mean % remaining at 2 hrs in human Plasma: 1 μM, 37° C., 120 min, LC-MS/MS; for Plasma stability: human plasma, after 2 hours, with respect to Propantheline
Procedure: 1 mM Stock of test compound was prepared from 10 mM initial stock solution of compounds by diluting 10 μL of 10 mM stock with 90 μL of DMSO. Then 10 μL of 1 mM stock was diluted with 90 µL of DMSO to give 100 μM concentration. The frozen plasma was thawed at room temperature and centrifuged at 1400 rpm at 4° C., for 15 minutes. Approximately […] of the clear supernatant fraction was transferred to a separate tube and was used for the assay. Final working stock of 1 μM was prepared by diluting 3 μL of 100 μM with 297 μL of plasma. Plasma containing the test compound was incubated for 120 min at 37° C. in shaker with 500 rpm. 50 μL of aliquot of sample at 0, 15, 30, 60 and 120 minutes were precipitated with 150 μL of acetonitrile containing internal standard and centrifuged at 4000 rpm at 4° C. for 20 minutes. 120 μL of supernatant was diluted with 120 μL of water and analyzed by LC-MS/MS.

[3] = tested on: ATGL; test: Western blot of ATGL level in HepG2 cells; type: cell-based; set-up: key to Increase in ATGL level: + = slight or in insignificant; ++ = Moderate; +++ and ++++ = active; +++ and ++++ = active; +++++ = very active; settings: for ATGL level in HepG2 cells / Increase in ATGL level: western blot; for ATGL level in HepG2 cells: 24 hours, 10 μM screening or 50 nM-5 μM dose dependent; for Increase in ATGL level: HepG2 cells, score
Summary of the method: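 HepG2 cells were treated with compound 24 h (10 μM screen; 50 nM–5 μM dose series) and lysed. 30 μg protein was western blotted for ATGL, with actin as loading reference. ATGL increase was expressed as percent of the 1.6-fold siCOP1 maximum and plotted against log concentration for EC50.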

[4] = Metabolic stability using Human Liver Microsomes; type: in vitro ADME; settings: for % QH (Well stirred model): NADPH, 0-60 min
Procedure: 1 mM stock solution of test compound was prepared in DMSO and diluted with Acetonitrile:Water (1:1) to get a 100 μM working concentration. 100 mL of Milli Q water was added to K2HPO4 (1.398 g) and KH2PO4 (0.27 g) to get final pH 7.4 solution of potassium phosphate buffer. […] The above mixture was pre incubated for 15 minutes at 37° C. After pre incubation, 32.5 μL of the mixture was added to 17.5 μL of buffer, this was incubated for 60 minutes at 37° C. [60 min Without Cofactor (NADPH)]. 16.25 μL of the pre incubated mixture and 8.75 μL of cofactor was added to 150 μL of acetonitrile containing internal standard [0 min Sample]. 62 μL of cofactor was added to remaining pre incubation mixture [Incubation mixture]. 25 μL of incubation mixture at 0, 5, 15, 30, 60 min and 60 min without cofactor were precipitated with 150 μL of acetonitrile containing internal standard, vortexed and centrifuged at 4000 rpm at 4° C. for 20 minutes. 120 μL of supernatant was diluted with 120 μL of water and analyzed by LC-MS/MS [sample preparation].

[5] = tested on: HepG2 cells; test: Confocal microscopy: lipid droplets in oleate induced HepG2 cells; type: cell-based; set-up: key to Reduction in Lipid Droplets: + = slight or in insignificant; ++ = Moderate; +++ and ++++ = active; +++ and ++++ = active; +++++ = very active; settings: for Reduction in Lipid Droplets: oleate induced HepG2 cells, score
Procedure: To select the compounds capable of inhibiting the ubiquitination of ATGL by COP1 by targeting the VP motif, confocal microscopy was performed with the provided molecules. If the compound was effective in inhibiting the interaction, there would be a reduction in the number of fat droplets in the cells after treatment. […] With this rationale in mind, HepG2 cells were induced to accumulate lipid droplets after treatment with 250 µM of oleate and 10 μM of the specific compounds were added. The potential of the compounds to bring about a reduction in the number of fat droplets was then checked by comparison with oleate induced cells by counting number of droplets of approximately 20 cells from each treatment and calculating the average number of lipid droplets of each cell. The selected compounds were then subjected to dose dependent treatments and the ones which could maintain its potency to reduce fat droplets at lower doses were then selected for western blot analysis. The compound which could reduce the number of fat droplets in the cells are expected to raise the levels of ATGL since they are likely to deter COP1 from ubiquitinating ATGL. This increase will be visible only in the protein level and gene expression is likely to remain unchanged since ubiquitination is a […] modification. Thus, western blot was performed to check ATGL levels in the cells with the selected molecules.
HepG2 cells were plated in confocal dishes (SPL, Genetix Biotech Asia Pvt. Ltd.). The cells were allowed to adhere and divide for 16 hours. 10 μM for initial screening and 10 nM, 20 nM, 50 nM, 100 nM, 200 nM, 500 nM, 1 μM and 5 μM for dose dependent assays of the compounds 9 and 107 were dissolved in DMSO and added to the cells. 250 μM of oleate was used for induction. BSA (Sigma Aldrich) was used as a negative control. Post 24 hours of treatment, media was decanted from the cells and washed with 1×PBS solution to remove any remnant. 200 μl of staining solution containing 200 ng/ml BODIPY (Invitrogen) and 25 µg/ml HOECKST342 (Invitrogen) were added to the cells and incubated at 37° C. for 30 minutes under dark conditions. Cells were washed 3 times with 1×PBS to remove excess stain. FLUOVIEW FV10i (Olympus) was used to visualise the cells.

SMILES | LogD @ pH 7.4 [1] | Mean % remaining at 2 hrs in human Plasma [2] | Plasma stability [2] | logD [1] | Lipophilicity class from Log D [1] | EC50 ([3]; fold increase of ATGL by densitometry, as % of 1.6 fold maximum with siCOP1, doses 10-5000 nM, read-out: EC50 (in-vitro)) | ATGL level in HepG2 cells [3] | Clearance class from % QH [4] | % QH (Well stirred model) [4] | Reduction in Lipid Droplets [5] | Increase in ATGL level [3] | Number of lipid droplets ([5]; HepG2 cells, 250 μM oleate induction)
O=c1c(O)c(-c2ccc(O)c(O)c2)oc2cc(O)cc(O)c12 [Quercetin, reference compound] | 2.81 |  |  |  |  |  |  |  |  |  |  | 
COCCc1ccc(OCC(O)CNC(C)C)cc1 (centres unmarked) [Metroprolol, reference compound] | −0.09 |  |  |  |  |  |  |  |  |  |  | 
COCCn1c(-c2ccccn2)nc2ccc(NC(=O)Nc3cccc(C(C)=O)c3)cc2c1=O [Compound 211, 1-(3-acetylphenyl)-3-(3-(2-methoxyethyl)-4-oxo-2-(pyridin-2-yl)-3,4-dihydroquinazolin-6-yl)urea] |  | 110.3% | good plasma stability | 2.48 | ideal lipophilicity | 199 nM | increased ATGL level | medium clearance | 38.8% |  |  | 
COCCn1c(C(=O)N2CCCCC2)nc2ccc(NC(=O)Nc3cccc(C(C)=O)c3)cc2c1=O [Compound 330a, 1-(3-acetylphenyl)-3-(3-(2-methoxyethyl)-4-oxo-2-(piperidine-1-carbonyl)-3,4-dihydroquinazolin-6-yl)urea] |  | 45.8% | good plasma stability | 1.79 | ideal lipophilicity |  |  | lower clearance | 26.0% |  |  | 
CC(=O)c1cccc(NC(=O)Nc2ccc3ncn(CC(=O)Nc4ccccc4F)c(=O)c3c2)c1 [Compound 253, 2-(6-(3-(3-acetylphenyl)ureido)-4-oxoquinazolin-3 (4H)-yl)-N-(2-fluorophenyl)acetamide] |  | 67.2% | good plasma stability | 3.01 | ideal lipophilicity |  |  | lower clearance | 29.8% | ++ | + | 
COCCn1c(C2CCCCC2)nc2ccc(NC(=O)Nc3cccc(C(C)=O)c3)cc2c1=O [Compound 123, 1-(3-acetylphenyl)-3-(2-cyclohexyl-3-(2-methoxyethyl)-4-oxo-3,4-dihydroquinazolin-6-yl)urea] |  | 48.5% | good plasma stability | 0.84 | hydrophilic |  | increased ATGL level |  |  | +++ | ++++ | 
CC(C)[N+](C)(CCOC(=O)C1c2ccccc2Oc2ccccc21)C(C)C [Propantheline, reference compound] |  | 1.7% |  |  |  |  |  |  |  |  |  | 
CCOC(=O)Cn1cnc2ccc(NC(=O)Nc3ccc(F)c(Cl)c3)cc2c1=O [Compound 83, ethyl 2-(6-(3-(3-chloro-4-fluorophenyl)ureido)-4-oxoquinazolin-3 (4H)-yl)acetate] |  |  |  |  |  |  |  |  |  | + | + | 
COc1cccc(-n2cnc3ccc(NC(=O)Nc4cccc(C(C)=O)c4)cc3c2=O)c1 [Compound 103, 1-(3-acetylphenyl)-3-(3-(3-methoxyphenyl)-4-oxo-3,4-dihydroquinazolin-6-yl)urea] |  |  |  |  |  |  | some sort of increase in ATGL level |  |  | + | + | reduction in lipid droplets

Reference: patent US12528777B2, “Quinazolinones derivatives for treatment of non-alcoholic fatty liver disease, preparation and use thereof” (Council of Scientific and Industrial Research, priority 2020, dated 2026)
